Earlier results in US20230080958A1, “METHODS OF TREATING PSEUDOBULBAR AFFECT AND OTHER EMOTIONAL DISTURBANCES” (Woolsey Pharmaceuticals, Inc., priority 2020, published 2023).

Experiments:
[1] = 1-hydroxy (M3) metabolite, in vivo (Shibuya 2001)
[2] = tested on: patients with sub-cortical vascular dementia

Row | SMILES | half-life [1] | emotional incontinence (compulsive laughing and/or crying) ([2]; Kamei publication and Japanese patent application 6-293643, three patients, no assessment or diagnosis of PBA) | wandering (primary outcome) ([2]; two patients with sub-cortical vascular dementia, open-label, no control group, concomitant medications (Kamei 1996))
1 | O=S(=O)(c1cccc2c(O)nccc12)N1CCCNCC1 [M3] | about 8 hours |  | 
2 | O=S(=O)(c1cccc2cnccc12)N1CCCNCC1 [fasudil, hexahydro-1-(5-isoquinolinesulfonyl)-1H-1,4-diazepine] |  | improvements | mitigated wandering
